Test results taken from patent US9770045B2, “Preservation of animal feed and hydrolysis of polysaccharides using amino acids as salts or with acids” (priority 2015, dated 2017).
Where a name gives a salt, the structure may show the parent alone. One block for each compound: values may come before it.

Columns and labels:
[1] = Cellulose (carboxymethylcellulose) hydrolysis, DNS sugar assay; conditions: carboxymethylcellulose (FIG. 2, FIG. 5)
From the text: Dinitrosalicyclic Acid Sugar Assay. The DNS sugar assay utilizes the reduction of dinitrosalicyclic acid by simple monosaccharides to create a change in color, respective the concentration of sugar in each sample (Rivers). A 1% dinitrosalicyclic acid solution was created with 0.25 M NaOH and […]. Another solution of 40% Sodium Potassium Tartrate was made to act as a color stabilizer to be added to the sample after the reaction. This procedure requires the experimental sample to be mixed with the DNS Assay solution and heated at approximately 100° C. for ten minutes. After the colorimetric reaction has occurred, the sodium potassium tartrate solution is added to stabilize the color change. The resulting color change can be measured using the wavelength of 570 nm.
Cellulose Hydrolysis. 5 mL of each acid was added to a glass container. Then, 0.1 grams of carboxymethylcellulose was slowly poured in to each sample. The containers were then capped and placed in a 60° C. incubator. At specific time intervals, 0.4 mL were taken and neutralized by 0.6 mL of a strong KOH solution to a pH above 10 in 1.5 mL microfuge tubes. Then 0.2 mL of the DNS Assay solution was added to each sample, which were then placed in a boiling water bath for ten minutes. […] The absorbance of the samples were then measured at 570 nm in a UV-Vis spectrophotometer and compared to a standard curve.

[2] = 60° C., one hour (FIG. 3)
Experimental: (§1) Seaweed Hydrolysis. […] The samples were heated to 60° C. Approximately 0.1 grams of seaweed was measured and added to each sample. The acid/seaweed mixtures were placed in an incubator set at 60° C. for one hour. At twenty minute intervals, 0.4 mL were taken from the samples and neutralized to a high pH (>10) with 0.6 mL of a concentrated aqueous NaOH solution.
(§2) Seaweed DNS Assay. To each of the neutralized mixtures, 0.2 mL of DNS solution (1% dinitrosalicyclic acid, 0.02% phenol, 0.25 M NaOH) was added. These samples were then placed in boiling water for approximately ten minutes until the brown color remained stable. The samples were then removed and 0.4 mL of a 40% potassium sodium tartrate solution was added to stabilize the color. The solutions were allowed to cool to room temperature and then the absorbance was recorded at 570 nm.

[3] = for rate in hydrolyzing switch grass: 60° C., one hour (FIG. 4)
Experimental: as §1, with “Switch Grass” for “Seaweed”, “switch grass” for “seaweed”, “acid/switch grass” for “acid/seaweed”, “0, 10, 20, 40, and 60 minutes,” for “twenty minute intervals,”
as §2, with “Switch Grass” for “Seaweed”, “Then 0.2 mL of each sample was mixed with 0.2” for “The samples were then removed and 0.4”, “and 1 mL of deionized water.” for “was added to stabilize the color.”

- pH change after switch grass hydrolysis [3]: lowered
Compound: NCC(=O)O [6M Glycine—HCl, glycine hydrochloride]
- hydrolysis rate [1]: equal to that of Oil Safe AR®
- rate in hydrolyzing seaweed [2]: about the same rate
- rate in hydrolyzing switch grass [3]: about the same rate

Compound: Cl [6M HCl, hydrochloric acid, reference compound]
- rate in hydrolyzing seaweed [2]: about the same rate
- rate in hydrolyzing switch grass [3]: about the same rate
- pH change after switch grass hydrolysis [3]: increased
